Assay results as given in ChEMBL document CHEMBL3588753, “Recent progress in the drug development of coumarin derivatives as potent antituberculosis agents” (2015).
≈ marks a conversion by molar mass, not a printed value.

tested on: Mycobacterium tuberculosis variant bovis; assay: Antimycobacterial activity against Mycobacterium bovis; format: functional

SMILES | MIC
COC(=O)C1C(=O)Oc2ccc(Br)cc2C1C(=O)NC1CCCCC1 (stereo not drawn) | 15.6 µg/mL (≈ 38 µM)
CC(C)COC(=O)C1C(=O)Oc2ccccc2C1C(=O)NC1CCCCC1 (stereo not drawn) | 15.6 µg/mL (≈ 41.8 µM)
O=C(OCc1ccc(F)cc1)C1C(=O)Oc2ccc(Br)cc2C1C(=O)NC1CCCCC1 (stereo not drawn) | 15.6 µg/mL (≈ 30.9 µM)
